Measurements published in ChEMBL document CHEMBL3352620, “Development of potent antagonists for formyl peptide receptor 1 based on Boc-Phe-D-Leu-Phe-D-Leu-Phe-OH” (Bioorg Med Chem, 2014).
Activity calls are given as the source filed them. The calls are words filed in the database; no cut-off is given here. Square brackets hold non-standard residues; d marks the D form. Peptide text beside a SMILES is read from it. * marks the point of attachment. Boc = CC(C)(C)OC(=O)*

Assays:
fMet-Leu-Phe receptor = biological target: T1, fMet-Leu-Phe receptor (Homo sapiens, UniProt P21462); assay: Antagonist activity at formyl peptide receptor in human HL60 cells assessed as inhibition of intracellular calcium mobilization incubated for 5 mins prior to fMLP challenge by Fura-2 method; type: functional, cell-based, HL-60
T1 sequence (P21462 whole entry): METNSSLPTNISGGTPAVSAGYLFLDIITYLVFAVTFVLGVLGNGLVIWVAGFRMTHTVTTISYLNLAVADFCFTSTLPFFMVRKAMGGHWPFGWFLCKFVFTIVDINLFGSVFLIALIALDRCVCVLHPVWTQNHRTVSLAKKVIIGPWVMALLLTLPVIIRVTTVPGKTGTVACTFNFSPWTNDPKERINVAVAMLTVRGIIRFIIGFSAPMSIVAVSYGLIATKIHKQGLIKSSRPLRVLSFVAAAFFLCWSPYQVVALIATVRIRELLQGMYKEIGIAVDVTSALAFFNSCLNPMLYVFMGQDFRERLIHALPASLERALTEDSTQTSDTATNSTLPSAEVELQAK

[1] = biological target: T2, fMet-Leu-Phe receptor (Homo sapiens) (UniProt P21462); assay: Agonist activity at formyl peptide receptor in human HL60 cells at 10 uM by Fura-2 method; type: cell-based; conditions: HL-60
T2 sequence (whole entry): T1 sequence (P21462 whole entry)

[2] = biological target: T2, fMet-Leu-Phe receptor (Homo sapiens); assay: Antagonist activity at formyl peptide receptor in human HL60 cells assessed as fMLP EC50 at 1 uM incubated for 5 mins prior to fMLP challenge by Fura-2 method; type: cell-based; conditions: HL-60

SMILES	Kd (fMet-Leu-Phe receptor)	Activity [1]	inhibition [2]
CC(C)C[C@@H](NC(=O)[C@H](Cc1ccccc1)NC(=O)[C@@H](CC(C)C)NC(=O)[C@H](Cc1ccc(OC(C)(C)C)cc1)NC(=O)OC(C)(C)C)C(=O)N[C@@H](Cc1ccccc1)C(=O)O	62 nM		
CC(C)C[C@@H](NC(=O)[C@H](Cc1ccccc1)NC(=O)[C@@H](CC(C)C)NC(=O)[C@H](Cc1ccccc1)NC(=O)OC(C)(C)C)C(=O)N[C@@H](C)C(=O)O	350 nM	inactive	
CC(C)C[C@@H](NC(=O)[C@H](Cc1ccccc1)NC(=O)[C@@H](CC(C)C)NC(=O)[C@H](Cc1ccccc1)NC(=O)OC(C)(C)C)C(=O)N[C@@H](Cc1ccccc1)C(=O)O (Boc-F[dL]F[dL]F-OH)		inactive	inactive
CC(C)C[C@@H](NC(=O)[C@H](Cc1ccccc1)NC(=O)[C@@H](CC(C)C)NC(=O)[C@H](Cc1cn(C(=O)OC(C)(C)C)c2ccccc12)NC(=O)OC(C)(C)C)C(=O)N[C@@H](Cc1ccccc1)C(=O)O	69 nM		
CC(C)C[C@@H](NC(=O)[C@H](CC1CCCCC1)NC(=O)[C@@H](CC(C)C)NC(=O)[C@H](Cc1ccccc1)NC(=O)OC(C)(C)C)C(=O)N[C@@H](Cc1ccccc1)C(=O)O	25 nM		
CC(C)C[C@@H](NC(=O)[C@H](C)NC(=O)[C@@H](CC(C)C)NC(=O)[C@H](Cc1ccccc1)NC(=O)OC(C)(C)C)C(=O)N[C@@H](Cc1ccccc1)C(=O)O	280 nM	inactive	
CC(C)C[C@@H](NC(=O)[C@H](Cc1ccccc1)NC(=O)[C@@H](CC(C)C)NC(=O)[C@H](Cc1ccccc1)NC(=O)OC(C)(C)C)C(=O)N[C@@H](Cc1ccc(C(=O)c2ccccc2)cc1)C(=O)O	150 nM		
CC(C)C[C@@H](NC(=O)[C@H](Cc1ccccc1)NC(=O)[C@@H](CC(C)C)NC(=O)[C@H](Cc1ccccc1)NC(=O)OC(C)(C)C)C(=O)N[C@@H](COC(C)(C)C)C(=O)O	180 nM		
CC(C)C[C@@H](NC(=O)[C@H](C)NC(=O)OC(C)(C)C)C(=O)N[C@@H](Cc1ccccc1)C(=O)N[C@H](CC(C)C)C(=O)N[C@@H](Cc1ccccc1)C(=O)O	170 nM	inactive	
CC(C)C[C@@H](NC(=O)[C@H](Cc1ccccc1)NC(=O)OC(C)(C)C)C(=O)N[C@@H](Cc1ccccc1)C(=O)N[C@H](CC(C)C)C(=O)N[C@H](C(=O)O)C(C)C	260 nM		
CC(C)C[C@@H](NC(=O)[C@H](Cc1ccc(C(=O)c2ccccc2)cc1)NC(=O)[C@@H](CC(C)C)NC(=O)[C@H](Cc1ccccc1)NC(=O)OC(C)(C)C)C(=O)N[C@@H](Cc1ccccc1)C(=O)O	150 nM		
CC(C)C[C@@H](NC(=O)[C@H](Cc1ccccc1)NC(=O)OC(C)(C)C)C(=O)N[C@@H](Cc1ccccc1)C(=O)N[C@H](CC(C)C)C(=O)N[C@H](C(=O)O)[C@@H](C)OC(C)(C)C	130 nM		
CC(C)C[C@@H](NC(=O)[C@H](Cc1ccccc1)NC(=O)[C@@H](CC(C)C)NC(=O)[C@H](Cc1ccccc1)NC(=O)OC(C)(C)C)C(=O)N[C@@H](Cc1cn(C(=O)OC(C)(C)C)c2ccccc12)C(=O)O	120 nM		
CC(C)C[C@@H](NC(=O)[C@H](Cc1ccccc1)NC(=O)[C@@H](CC(C)C)NC(=O)[C@H](COC(C)(C)C)NC(=O)OC(C)(C)C)C(=O)N[C@@H](Cc1ccccc1)C(=O)O	100 nM		
CC(C)C[C@@H](NC(=O)[C@H](CC(=O)OC(C)(C)C)NC(=O)[C@@H](CC(C)C)NC(=O)[C@H](Cc1ccccc1)NC(=O)OC(C)(C)C)C(=O)N[C@@H](Cc1ccccc1)C(=O)O	510 nM		
CC(C)C[C@@H](NC(=O)[C@H](Cc1ccccc1)NC(=O)[C@@H](CC(C)C)NC(=O)[C@H](Cc1cn(C=O)c2ccccc12)NC(=O)OC(C)(C)C)C(=O)N[C@@H](Cc1ccccc1)C(=O)O	90 nM		
CC(C)C[C@@H](NC(=O)[C@H](Cc1ccccc1)NC(=O)[C@@H](CC(C)C)NC(=O)[C@H](Cc1ccccc1)NC(=O)OC(C)(C)C)C(=O)N[C@@H](Cc1c[nH]c2ccccc12)C(=O)O	150 nM		
CC(C)C[C@@H](NC(=O)[C@H](Cc1ccccc1)NC(=O)[C@@H](CC(C)C)NC(=O)[C@H](CCCCNC(=O)C1CCCCC1)NC(=O)OC(C)(C)C)C(=O)N[C@@H](Cc1ccccc1)C(=O)O	150 nM		
CC(C)C[C@@H](NC(=O)[C@H](Cc1ccccc1)NC(=O)[C@@H](CC(C)C)NC(=O)[C@H](Cc1c[nH]c2ccccc12)NC(=O)OC(C)(C)C)C(=O)N[C@@H](Cc1ccccc1)C(=O)O	190 nM		
